Legend:
[1] = molecular target: Tyrosine-protein kinase CSK (Homo sapiens) (UniProt P41240); conditions: dose 1000.0 nM
Description: Inhibition of CSK (unknown origin) at 1000 nM relative to control

[2] = molecular target: Proto-oncogene tyrosine-protein kinase Src (Homo sapiens) (UniProt P12931); conditions: dose 1000.0 nM
Description: Inhibition of SRC (unknown origin) at 1000 nM relative to control

[3] = molecular target: Focal adhesion kinase 1 (Homo sapiens) (UniProt Q05397); conditions: dose 1000.0 nM
Description: Inhibition of FAK (unknown origin) at 1000 nM relative to control

[4] = molecular target: Glycogen synthase kinase-3 beta (Homo sapiens) (UniProt P49841); conditions: dose 1000.0 nM
Description: Inhibition of GSK3beta (unknown origin) at 1000 nM relative to control

[5] = molecular target: Serine/threonine-protein kinase PAK 3 (Homo sapiens) (UniProt O75914); conditions: dose 1000.0 nM
Description: Inhibition of PAK3 (unknown origin) at 1000 nM relative to control

NCI-H1581 [6] = assay: cells; format: functional, cell-based; conditions: Homo sapiens, NCI-H1581, 96 h
SNU-16 [7] = assay: animal or person; format: functional; conditions: Mus musculus, SNU-16, po, 960 h, time 40 day, read-out: TGI
Description: Antitumor activity against human SNU-16 cells xenografted in BALB/c mouse assessed as tumor growth inhibition at 100 mg/kg, po administered once daily for 40 days relative to control

SNU-16 [8] = assay: cells; format: functional, cell-based; conditions: Homo sapiens, SNU-16, 96 h
[9] = molecular target: Casein kinase II subunit alpha (Homo sapiens) (UniProt P68400); conditions: dose 1000.0 nM
Description: Inhibition of CK2alpha1 (unknown origin) at 1000 nM relative to control

[10] = molecular target: Serine/threonine-protein kinase TAO1 (Homo sapiens) (UniProt Q7L7X3); conditions: dose 1000.0 nM
Description: Inhibition of TAOK1 (unknown origin) at 1000 nM relative to control

[11] = molecular target: Receptor tyrosine-protein kinase erbB-2 (Homo sapiens) (UniProt P04626); conditions: dose 1000.0 nM
Description: Inhibition of HER2 (unknown origin) at 1000 nM relative to control

[12] = molecular target: Tyrosine-protein kinase Lck (Homo sapiens) (UniProt P06239); conditions: dose 1000.0 nM
Description: Inhibition of LCK (unknown origin) at 1000 nM relative to control

[13] = molecular target: Tyrosine-protein kinase BTK (Homo sapiens) (UniProt Q06187); conditions: dose 1000.0 nM
Description: Inhibition of BTK (unknown origin) at 1000 nM relative to control

Homo sapiens [14] = species: Homo sapiens; conditions: dose 1000.0 nM
Description: Inhibition of PKA (unknown origin) at 1000 nM relative to control

Homo sapiens [15] = species: Homo sapiens; conditions: dose 1000.0 nM; remark: listed apart in the source
Description: Inhibition of FYNA (unknown origin) at 1000 nM relative to control

[16] = molecular target: Serine/threonine-protein kinase B-raf (Homo sapiens) (UniProt P15056); conditions: dose 1000.0 nM
Description: Inhibition of BRAF (unknown origin) at 1000 nM relative to control

in vivo [17] = conditions: Sprague-Dawley, rat, po, 5 mg/kg
Description: MRT in Sprague-Dawley rat at 5 mg/kg, po administered as single dose measured up to 8 hrs by LC/MS-MS analysis

in vivo [18] = conditions: Sprague-Dawley, rat, iv, 5 mg/kg
Description: MRT in Sprague-Dawley rat at 5 mg/kg, iv administered as single dose measured up to 8 hrs by LC/MS-MS analysis

[19] = molecular target: Aurora kinase A (Homo sapiens) (UniProt O14965); conditions: dose 1000.0 nM
Chain of Aurora kinase A (Homo sapiens) (O14965 whole entry): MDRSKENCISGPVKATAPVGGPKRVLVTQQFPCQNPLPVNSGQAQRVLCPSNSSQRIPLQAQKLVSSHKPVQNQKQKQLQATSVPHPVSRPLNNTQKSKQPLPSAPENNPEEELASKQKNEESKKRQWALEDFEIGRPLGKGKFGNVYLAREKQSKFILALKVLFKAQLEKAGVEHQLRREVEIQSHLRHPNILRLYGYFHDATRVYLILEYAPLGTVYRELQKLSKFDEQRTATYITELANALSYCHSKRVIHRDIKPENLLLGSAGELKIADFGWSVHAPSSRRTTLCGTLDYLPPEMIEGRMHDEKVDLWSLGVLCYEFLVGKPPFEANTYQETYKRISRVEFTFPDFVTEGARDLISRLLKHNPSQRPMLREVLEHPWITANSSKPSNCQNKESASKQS
Description: Inhibition of AURORA kinase A (unknown origin) at 1000 nM relative to control

[20] = molecular target: Receptor-type tyrosine-protein kinase FLT3 (Homo sapiens) (UniProt P36888); conditions: dose 1000.0 nM
Description: Inhibition of FLT3 (unknown origin) at 1000 nM relative to control

NCI-H460 = assay: cells; format: functional, cell-based; conditions: Homo sapiens, NCI-H460, 96 h
[21] = molecular target: Tyrosine-protein kinase Mer (Homo sapiens) (UniProt Q12866); conditions: dose 1000.0 nM
Description: Inhibition of c-MER (unknown origin) at 1000 nM relative to control

in vivo [22] = conditions: Sprague-Dawley, rat, iv, 5 mg/kg; remark: listed apart in the source
[23] = molecular target: RAC-gamma serine/threonine-protein kinase (Homo sapiens) (UniProt Q9Y243); conditions: dose 1000.0 nM
Chain of RAC-gamma serine/threonine-protein kinase (Homo sapiens) (Q9Y243 whole entry): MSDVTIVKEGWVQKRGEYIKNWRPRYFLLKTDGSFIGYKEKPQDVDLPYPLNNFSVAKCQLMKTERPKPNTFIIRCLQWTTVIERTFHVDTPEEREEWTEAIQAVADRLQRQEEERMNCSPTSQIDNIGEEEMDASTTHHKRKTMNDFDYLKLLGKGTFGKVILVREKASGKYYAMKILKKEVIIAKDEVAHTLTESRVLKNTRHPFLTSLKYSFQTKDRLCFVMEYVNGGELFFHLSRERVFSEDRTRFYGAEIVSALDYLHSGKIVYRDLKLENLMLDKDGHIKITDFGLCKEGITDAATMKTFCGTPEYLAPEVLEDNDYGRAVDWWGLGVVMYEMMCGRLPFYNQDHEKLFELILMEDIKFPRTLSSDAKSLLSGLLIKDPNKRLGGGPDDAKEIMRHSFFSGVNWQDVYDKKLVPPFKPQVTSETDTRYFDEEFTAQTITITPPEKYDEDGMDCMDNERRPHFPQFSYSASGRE
Description: Inhibition of AKT3 (unknown origin) at 1000 nM relative to control

NCI-H1581 [24] = assay: animal or person; format: functional; conditions: Mus musculus, NCI-H1581, po, 624 h, time 26 day, read-out: TGI
Description: Antitumor activity against human NCI-H1581 cells xenografted in BALB/c mouse assessed as tumor growth inhibition at 100 mg/kg, po administered once daily for 26 days relative to control

[25] = molecular target: Tyrosine-protein kinase JAK3 (Homo sapiens) (UniProt P52333); conditions: dose 1000.0 nM
Description: Inhibition of JAK3 (unknown origin) at 1000 nM relative to control

in vivo [26] = conditions: Sprague-Dawley, rat, iv, 5 mg/kg; remark: listed apart in the source
[27] = molecular target: Mitogen-activated protein kinase kinase kinase 5 (Homo sapiens) (UniProt Q99683); conditions: dose 1000.0 nM
Description: Inhibition of ASK1 (unknown origin) at 1000 nM relative to control

[28] = molecular target: TGF-beta receptor type-1 (Homo sapiens) (UniProt P36897); conditions: dose 1000.0 nM
Description: Inhibition of TGFBR1 (unknown origin) at 1000 nM relative to control

[29] = molecular target: Calcium/calmodulin-dependent protein kinase type II subunit alpha (Homo sapiens) (UniProt Q9UQM7); conditions: dose 1000.0 nM
Description: Inhibition of CAMK2 alpha (unknown origin) at 1000 nM relative to control

[30] = molecular target: Proto-oncogene tyrosine-protein kinase receptor Ret (Homo sapiens) (UniProt P07949); conditions: dose 1000.0 nM
Description: Inhibition of RET (unknown origin) at 1000 nM relative to control

[31] = molecular target: Discoidin domain-containing receptor 2 (Homo sapiens) (UniProt Q16832); conditions: dose 1000.0 nM
Description: Inhibition of DDR2 (unknown origin) at 1000 nM relative to control

[32] = molecular target: Glycogen synthase kinase-3 alpha (Homo sapiens) (UniProt P49840); conditions: dose 1000.0 nM
Description: Inhibition of GSK3alpha (unknown origin) at 1000 nM relative to control

[33] = molecular target: Voltage-gated inwardly rectifying potassium channel KCNH2 (Homo sapiens, UniProt Q12809)
Description: Binding affinity to human ERG

[34] = molecular target: Interferon-induced, double-stranded RNA-activated protein kinase (Homo sapiens) (UniProt P19525); conditions: dose 1000.0 nM
Description: Inhibition of EIF2AK2 (unknown origin) at 1000 nM relative to control

in vivo [35] = conditions: Sprague-Dawley, rat, po, 5 mg/kg; remark: listed apart in the source
Description: Clearance in Sprague-Dawley rat at 5 mg/kg, po administered as single dose measured up to 8 hrs by LC/MS-MS analysis

[36] = molecular target: Tyrosine-protein kinase ABL1 (Homo sapiens) (UniProt P00519); conditions: dose 1000.0 nM
Description: Inhibition of ABL1 (unknown origin) at 1000 nM relative to control

[37] = molecular target: Mitogen-activated protein kinase 1 (Homo sapiens) (UniProt P28482); conditions: dose 1000.0 nM
Chain of Mitogen-activated protein kinase 1 (Homo sapiens) (P28482 whole entry): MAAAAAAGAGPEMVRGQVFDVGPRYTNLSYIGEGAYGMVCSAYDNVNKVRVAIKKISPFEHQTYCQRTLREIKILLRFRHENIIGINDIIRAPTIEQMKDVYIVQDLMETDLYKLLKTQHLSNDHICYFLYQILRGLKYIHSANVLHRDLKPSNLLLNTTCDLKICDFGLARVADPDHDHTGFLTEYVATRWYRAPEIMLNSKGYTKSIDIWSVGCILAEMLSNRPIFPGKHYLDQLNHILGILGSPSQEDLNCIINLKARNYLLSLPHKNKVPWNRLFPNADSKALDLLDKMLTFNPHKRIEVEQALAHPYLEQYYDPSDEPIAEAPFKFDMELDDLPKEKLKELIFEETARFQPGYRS
Description: Inhibition of MAPK1 (unknown origin) at 1000 nM relative to control

[38] = molecular target: Tyrosine-protein kinase receptor UFO (Homo sapiens) (UniProt P30530); conditions: dose 1000.0 nM
Description: Inhibition of AXL (unknown origin) at 1000 nM relative to control

in vivo [39] = conditions: Sprague-Dawley, rat, iv, 5 mg/kg; remark: listed apart in the source
Description: Initial plasma concentration in Sprague-Dawley rat at 5 mg/kg, iv administered as single dose measured up to 8 hrs by LC/MS-MS analysis

[40] = molecular target: Epidermal growth factor receptor (Homo sapiens) (UniProt P00533); conditions: dose 1000.0 nM
Description: Inhibition of EGFR (unknown origin) at 1000 nM relative to control

[41] = molecular target: Serine/threonine-protein kinase Chk1 (Homo sapiens) (UniProt O14757); conditions: dose 1000.0 nM
Description: Inhibition of CHK1 (unknown origin) at 1000 nM relative to control

in vivo [42] = conditions: Sprague-Dawley, rat, po, 5 mg/kg; remark: listed apart in the source
[43] = molecular target: Serine/threonine-protein kinase Nek3 (Homo sapiens) (UniProt P51956); conditions: dose 1000.0 nM
Chain of Serine/threonine-protein kinase Nek3 (Homo sapiens) (P51956 whole entry): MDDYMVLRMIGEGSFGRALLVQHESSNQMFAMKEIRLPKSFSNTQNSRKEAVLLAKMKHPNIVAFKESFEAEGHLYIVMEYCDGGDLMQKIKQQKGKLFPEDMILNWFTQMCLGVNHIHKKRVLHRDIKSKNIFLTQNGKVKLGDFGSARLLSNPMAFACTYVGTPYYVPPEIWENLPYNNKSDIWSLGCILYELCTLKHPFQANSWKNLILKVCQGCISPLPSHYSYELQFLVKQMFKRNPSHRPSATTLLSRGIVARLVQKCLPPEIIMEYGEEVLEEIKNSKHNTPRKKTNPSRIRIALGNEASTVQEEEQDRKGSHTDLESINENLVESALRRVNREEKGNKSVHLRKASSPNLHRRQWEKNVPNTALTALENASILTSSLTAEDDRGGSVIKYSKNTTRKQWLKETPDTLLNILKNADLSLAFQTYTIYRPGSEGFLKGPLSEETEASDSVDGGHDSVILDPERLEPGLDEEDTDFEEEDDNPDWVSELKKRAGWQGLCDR
Description: Inhibition of NEK3 (unknown origin) at 1000 nM relative to control

NCI-H1581 [44] = assay: animal or person; format: functional; conditions: Mus musculus, NCI-H1581, po, 624 h, time 26 day, read-out: TGI; remark: listed apart in the source
Description: Antitumor activity against human NCI-H1581 cells xenografted in BALB/c mouse assessed as tumor growth inhibition at 50 mg/kg, po administered once daily for 26 days relative to control

[45] = molecular target: Macrophage-stimulating protein receptor (Homo sapiens) (UniProt Q04912); conditions: dose 1000.0 nM
Description: Inhibition of RON (unknown origin) at 1000 nM relative to control

[46] = molecular target: Maternal embryonic leucine zipper kinase (Homo sapiens) (UniProt Q14680); conditions: dose 1000.0 nM
Description: Inhibition of MELK (unknown origin) at 1000 nM relative to control

[47] = molecular target: Rho-associated protein kinase 1 (Homo sapiens) (UniProt Q13464); conditions: dose 1000.0 nM
Description: Inhibition of ROCK1 (unknown origin) at 1000 nM relative to control

SNU-16 [48] = assay: animal or person; format: functional; conditions: Mus musculus, SNU-16, po, 960 h, time 40 day, read-out: TGI; remark: listed apart in the source
Description: Antitumor activity against human SNU-16 cells xenografted in BALB/c mouse assessed as tumor growth inhibition at 50 mg/kg, po administered once daily for 40 days relative to control

[49] = molecular target: Vascular endothelial growth factor receptor 2 (Homo sapiens) (UniProt P35968); conditions: dose 1000.0 nM
Description: Inhibition of VEGFR2(unknown origin) at 1000 nM relative to control

[50] = molecular target: Mitogen-activated protein kinase kinase kinase 14 (Homo sapiens) (UniProt Q99558); conditions: dose 1000.0 nM
Description: Inhibition of NIK (unknown origin) at 1000 nM relative to control

[51] = molecular target: Serine/threonine-protein kinase Nek2 (Homo sapiens) (UniProt P51955); conditions: dose 1000.0 nM
Description: Inhibition of NEK2 (unknown origin) at 1000 nM relative to control

[52] = molecular target: Hepatocyte growth factor receptor (Homo sapiens) (UniProt P08581); conditions: dose 1000.0 nM
Description: Inhibition of MET (unknown origin) at 1000 nM relative to control

[53] = molecular target: Mitogen-activated protein kinase 14 (Homo sapiens) (UniProt Q16539); conditions: dose 1000.0 nM
Description: Inhibition of P38alpha (unknown origin) at 1000 nM relative to control

[54] = molecular target: Platelet-derived growth factor receptor alpha (Homo sapiens) (UniProt P16234); conditions: dose 1000.0 nM
Description: Inhibition of PDGFRA (unknown origin) at 1000 nM relative to control

[55] = molecular target: Mitogen-activated protein kinase 8 (Homo sapiens) (UniProt P45983); conditions: dose 1000.0 nM
Description: Inhibition of JNK1 (unknown origin) at 1000 nM relative to control

[56] = molecular target: Tyrosine-protein kinase ITK/TSK (Homo sapiens) (UniProt Q08881); conditions: dose 1000.0 nM
Description: Inhibition of ITK (unknown origin) at 1000 nM relative to control

in vivo [57] = conditions: Sprague-Dawley, rat, po, 5 mg/kg; remark: listed apart in the source
Description: Half life in Sprague-Dawley rat plasma at 5 mg/kg, po administered as single dose measured up to 8 hrs by LC/MS-MS analysis

[58] = molecular target: Cyclin-dependent kinase 4 (Homo sapiens) (UniProt P11802); conditions: dose 1000.0 nM
Description: Inhibition of CDK4 (unknown origin) at 1000 nM relative to control

[59] = molecular target: Serine/threonine-protein kinase pim-1 (Homo sapiens) (UniProt P11309); conditions: dose 1000.0 nM
Description: Inhibition of PIM1 (unknown origin) at 1000 nM relative to control

[60] = molecular target: Interleukin-1 receptor-associated kinase 4 (Homo sapiens) (UniProt Q9NWZ3); conditions: dose 1000.0 nM
Description: Inhibition of IRAK4 (unknown origin) at 1000 nM relative to control

in vivo [61] = conditions: Sprague-Dawley, rat, po, 5 mg/kg; remark: listed apart in the source
[62] = molecular target: ALK tyrosine kinase receptor (Homo sapiens) (UniProt Q9UM73); conditions: dose 1000.0 nM
Chain of ALK tyrosine kinase receptor (Homo sapiens) (Q9UM73 19-1620 limits assumed): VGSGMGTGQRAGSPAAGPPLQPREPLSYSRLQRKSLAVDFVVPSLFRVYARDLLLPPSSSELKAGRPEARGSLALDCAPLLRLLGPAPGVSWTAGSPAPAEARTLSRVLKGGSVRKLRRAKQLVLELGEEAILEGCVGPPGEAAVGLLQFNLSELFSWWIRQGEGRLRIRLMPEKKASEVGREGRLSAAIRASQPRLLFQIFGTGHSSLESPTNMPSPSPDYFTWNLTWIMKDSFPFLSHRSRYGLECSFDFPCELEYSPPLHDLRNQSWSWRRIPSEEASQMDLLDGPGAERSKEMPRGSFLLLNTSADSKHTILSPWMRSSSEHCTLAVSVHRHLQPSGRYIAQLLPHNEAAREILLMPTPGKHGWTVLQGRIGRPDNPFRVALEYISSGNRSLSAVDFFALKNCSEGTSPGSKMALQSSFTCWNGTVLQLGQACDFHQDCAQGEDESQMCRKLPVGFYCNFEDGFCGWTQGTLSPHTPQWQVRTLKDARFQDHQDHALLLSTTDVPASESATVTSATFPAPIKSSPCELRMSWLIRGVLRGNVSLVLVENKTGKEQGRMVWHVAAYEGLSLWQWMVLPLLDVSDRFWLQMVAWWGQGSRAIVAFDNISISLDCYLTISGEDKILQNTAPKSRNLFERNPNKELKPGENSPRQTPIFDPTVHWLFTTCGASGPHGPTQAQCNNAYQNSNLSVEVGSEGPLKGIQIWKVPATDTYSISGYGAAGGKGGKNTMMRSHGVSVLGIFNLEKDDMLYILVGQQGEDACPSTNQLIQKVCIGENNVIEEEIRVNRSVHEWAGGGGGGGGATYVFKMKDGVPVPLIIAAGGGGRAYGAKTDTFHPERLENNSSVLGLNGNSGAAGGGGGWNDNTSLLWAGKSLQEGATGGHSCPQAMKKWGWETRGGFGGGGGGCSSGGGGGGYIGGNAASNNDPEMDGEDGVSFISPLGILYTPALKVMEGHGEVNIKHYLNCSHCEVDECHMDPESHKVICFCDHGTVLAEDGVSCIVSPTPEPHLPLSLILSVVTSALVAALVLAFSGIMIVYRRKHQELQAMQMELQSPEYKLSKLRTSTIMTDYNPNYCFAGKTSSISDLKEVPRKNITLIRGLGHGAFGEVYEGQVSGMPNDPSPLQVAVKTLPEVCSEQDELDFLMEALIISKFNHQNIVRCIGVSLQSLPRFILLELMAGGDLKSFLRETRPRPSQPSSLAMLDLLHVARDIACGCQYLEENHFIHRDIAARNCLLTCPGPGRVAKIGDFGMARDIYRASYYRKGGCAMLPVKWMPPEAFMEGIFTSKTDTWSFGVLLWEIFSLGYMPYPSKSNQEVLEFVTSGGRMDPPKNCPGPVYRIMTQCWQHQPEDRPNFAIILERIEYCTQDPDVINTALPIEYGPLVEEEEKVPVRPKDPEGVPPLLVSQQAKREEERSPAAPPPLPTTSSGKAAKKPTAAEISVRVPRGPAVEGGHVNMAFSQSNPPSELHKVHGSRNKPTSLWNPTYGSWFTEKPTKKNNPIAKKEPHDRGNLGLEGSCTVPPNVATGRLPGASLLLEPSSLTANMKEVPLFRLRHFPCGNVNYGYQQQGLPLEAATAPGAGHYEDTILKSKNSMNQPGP
Description: Inhibition of ALK (unknown origin) at 1000 nM relative to control

[63] = molecular target: Dual specificity protein kinase CLK1 (Homo sapiens) (UniProt P49759); conditions: dose 1000.0 nM
Description: Inhibition of CLK1 (unknown origin) at 1000 nM relative to control

[64] = molecular target: Serine/threonine-protein kinase TBK1 (Homo sapiens) (UniProt Q9UHD2); conditions: dose 1000.0 nM
Description: Inhibition of TBK1 (unknown origin) at 1000 nM relative to control

Huh-7 = assay: cells; format: functional, cell-based; conditions: Homo sapiens, Huh-7, 96 h
SK-HEP1 = assay: cells; format: functional, cell-based; conditions: Homo sapiens, SK-HEP1, 96 h

Chain of Focal adhesion kinase 1 (Homo sapiens) (Q05397 2-1052 limits assumed): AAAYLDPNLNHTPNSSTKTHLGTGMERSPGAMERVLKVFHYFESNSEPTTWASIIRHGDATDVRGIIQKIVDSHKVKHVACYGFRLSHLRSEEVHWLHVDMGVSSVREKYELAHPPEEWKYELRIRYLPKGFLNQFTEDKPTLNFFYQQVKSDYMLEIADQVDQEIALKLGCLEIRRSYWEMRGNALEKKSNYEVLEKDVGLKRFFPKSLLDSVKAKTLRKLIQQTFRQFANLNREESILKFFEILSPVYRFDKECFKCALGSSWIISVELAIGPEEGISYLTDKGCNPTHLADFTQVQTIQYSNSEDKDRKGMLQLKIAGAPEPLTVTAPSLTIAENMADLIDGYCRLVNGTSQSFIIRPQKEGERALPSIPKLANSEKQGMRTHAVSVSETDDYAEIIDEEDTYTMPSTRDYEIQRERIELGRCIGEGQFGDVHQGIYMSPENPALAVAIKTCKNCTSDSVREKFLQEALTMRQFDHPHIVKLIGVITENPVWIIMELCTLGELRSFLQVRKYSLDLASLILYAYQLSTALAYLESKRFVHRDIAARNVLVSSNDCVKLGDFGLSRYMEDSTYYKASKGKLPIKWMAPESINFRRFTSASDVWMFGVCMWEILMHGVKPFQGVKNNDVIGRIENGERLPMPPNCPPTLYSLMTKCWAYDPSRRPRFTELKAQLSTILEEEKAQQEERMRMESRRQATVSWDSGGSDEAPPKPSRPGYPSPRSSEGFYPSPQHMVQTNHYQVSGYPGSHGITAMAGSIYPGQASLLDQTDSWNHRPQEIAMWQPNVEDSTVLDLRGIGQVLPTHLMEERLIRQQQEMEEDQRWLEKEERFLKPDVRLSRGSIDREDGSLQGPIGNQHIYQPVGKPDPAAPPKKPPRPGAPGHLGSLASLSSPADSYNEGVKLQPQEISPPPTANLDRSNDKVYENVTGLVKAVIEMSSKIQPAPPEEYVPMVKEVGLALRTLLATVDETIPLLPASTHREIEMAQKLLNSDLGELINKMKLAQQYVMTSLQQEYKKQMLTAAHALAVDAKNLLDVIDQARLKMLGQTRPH
Chain of Tyrosine-protein kinase CSK (Homo sapiens) (P41240 2-450 limits assumed): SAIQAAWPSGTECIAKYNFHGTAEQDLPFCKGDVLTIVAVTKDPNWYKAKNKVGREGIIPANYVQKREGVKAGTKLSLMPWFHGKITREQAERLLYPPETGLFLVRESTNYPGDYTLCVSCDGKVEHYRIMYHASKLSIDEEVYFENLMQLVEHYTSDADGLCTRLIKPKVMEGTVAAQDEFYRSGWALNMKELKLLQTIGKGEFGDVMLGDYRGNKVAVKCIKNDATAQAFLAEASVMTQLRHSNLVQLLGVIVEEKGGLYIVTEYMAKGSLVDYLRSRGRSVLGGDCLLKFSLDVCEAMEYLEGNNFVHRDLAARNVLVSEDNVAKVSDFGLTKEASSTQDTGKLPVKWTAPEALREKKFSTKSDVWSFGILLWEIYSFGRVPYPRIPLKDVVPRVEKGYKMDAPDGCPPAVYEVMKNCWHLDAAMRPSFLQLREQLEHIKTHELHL

COc1cc(OC)cc(-c2nn(CCCCCN3CCN(C(=O)/C=C/C(F)(F)F)CC3)c3ncnc(N)c23)c1
inhibition [1]: 0%
inhibition [2]: 83%
inhibition [3]: 17%
inhibition [4]: 0%
inhibition [5]: 9%
IC50 (NCI-H1581 [6]): 16 nM
inhibition in vivo at 100 mg/kg (SNU-16 [7]): 89.4%
IC50 (SNU-16 [8]): 6 nM
inhibition [9]: 0%
inhibition [10]: 0%
inhibition [11]: 3%
inhibition [12]: 23%
inhibition [13]: 0%
inhibition (Homo sapiens [14]): 0%
inhibition (Homo sapiens [15]): 0%
inhibition [16]: 2%
MRT at 8 h (in vivo [17]): 19.1 min
MRT at 8 h (in vivo [18]): 60.5 min
inhibition [19]: 1%
inhibition [20]: 1%
IC50 (NCI-H460): > 10000 nM
inhibition [21]: 9%
Tmax at 8 h (in vivo [22]): 4.98 min
inhibition [23]: 6%
inhibition in vivo at 100 mg/kg (NCI-H1581 [24]): 88.6%
inhibition [25]: 11%
AUC at 8 h (in vivo [26]): 0.309 ng·h/mL
inhibition [27]: 0%
inhibition [28]: 8%
inhibition [29]: 0%
inhibition [30]: 24%
inhibition [31]: 21%
inhibition [32]: 0%
IC50 [33]: 3210 nM
inhibition [34]: 27%
CL/F at 8 h (in vivo [35]): 280000 mL/min
inhibition [36]: 14%
inhibition [37]: 4%
inhibition [38]: 0%
C0 at 8 h (in vivo [39]): 0.519 ng/mL
inhibition [40]: 2%
inhibition [41]: 2%
Tmax at 8 h (in vivo [42]): 8.34 min
inhibition [43]: 1%
inhibition in vivo at 50 mg/kg (NCI-H1581 [44]): 69.5%
inhibition [45]: 4%
inhibition [46]: 0%
inhibition [47]: 12%
inhibition in vivo at 50 mg/kg (SNU-16 [48]): 67.9%
inhibition [49]: 7%
inhibition [50]: 0%
inhibition [51]: 0%
inhibition [52]: 1%
inhibition [53]: 3%
inhibition [54]: 42%
inhibition [55]: 2%
inhibition [56]: 35%
half-life at 8 h (in vivo [57]): 16.8 min
inhibition [58]: 3%
inhibition [59]: 0%
inhibition [60]: 0%
bioavailability at 8 h (in vivo [61]): 24.9%
inhibition [62]: 0%
inhibition [63]: 0%
inhibition [64]: 1%

COc1cc(CCc2cc(NC(=O)c3ccc(N4C[C@@H](C)N[C@@H](C)C4)cc3)n[nH]2)cc(OC)c1 [FEXAGRATINIB]
IC50 (NCI-H1581 [6]): 24 nM
IC50 (SNU-16 [8]): 6 nM
IC50 (NCI-H460): > 10000 nM
IC50 (Huh-7): > 10000 nM
IC50 (SK-HEP1): 2780 nM
